From paper PMC8839448, “Novel Pyridothienopyrimidine Derivatives: Design, Synthesis and Biological Evaluation as Antimicrobial and Anticancer Agents” (Molecules, 2022)
In brackets after ≈: the same amount, converted by molar mass.

Legend:
E. coli = settings: Figure 1, reported agents; ref [21],[22],[33],[34]; cited from earlier work
B. cereus = settings: Figure 1, reported agents; ref [21],[22],[33],[34]; cited from earlier work
S. aureus = settings: Figure 1, reported agents; ref [21],[22],[33],[34]; cited from earlier work
[1] = test system: Salmonella typhimurium 14028; assay: In vitro antibacterial activity, MIC by broth dilution; type: cell-based; settings: Salmonella enterica, Gram −ve bacteria, read-out: MIC S. typhimurium
[2] = test system: hepatocellular carcinoma (HepG2) cells; assay: Cytotoxicity, MTT assay; type: cell-based; settings: Homo sapiens, read-out: Cytotoxic activity IC50 HepG2
[3] = test system: Aspergillus niger EM77 (KF774181); assay: In vitro antifungal activity, MIC by broth dilution; type: cell-based; settings: fungi
Escherichia coli 8739 = assay: In vitro antibacterial activity, MIC by broth dilution; type: cell-based; settings: Gram −ve bacteria
Candida tropicals 750 = assay: In vitro antifungal activity, MIC by broth dilution; type: cell-based; settings: yeast, read-out: MIC C. tropicals
EGFR kinase = EGFR kinase (Homo sapiens, UniProt P00533); assay: In vitro EGFR kinase inhibitory assay (Kinase-Glo MAX kit); settings: EGFR IC50, EGFR kinase assay kit, triplicate, ± SD
Description: The assay kit is designed to measure EGFR Kinase activity for screening applications using Kinase-Glo® MAX as a detection reagent. The luminescence was measured using a microplate reader (Infinite M200 microplate reader, Tecan, Männedorf, Switzerland) [54]. All assays were performed in triplicate and the relative inhibition (%) of inhibitors was then calculated via comparison with the control with no inhibitor.
In vitro EGFR kinase assay
The assay Kit is designed to measure EGFR Kinase
activity for screening applications using Kinase-Glo® MAX as a detection reagent
using Kinase-Glo® MAX as a detection reagent. Thaw 5x Kinase Buffer 1: ATP and
PTK substrate Poly (Glu:Tyr 4:1) (10 mg/ml) kinase was provided. Then the master
mixture was prepared: N wells x (6 μl 5x Kinase Buffer 1 + 1 µl ATP (500 µM) + 1
µl PTK substrate Poly (Glu:Tyr 4:1) (10 mg/ml)+ 17 μl water) and 25 μl of the
mixture was added to every well. The tested compounds were dissolved in DMSO,
well labeled as “Positive Control", 5 μl of the same solution of the reference drug
erlotinib and “Blank”, 5 μl of the same solution without inhibitor (Inhibitor buffer).
ml of 1x Kinase Buffer 1) was prepared by mixing 600 µl of 5x Kinase Buffer 1 with
The reaction initiated by adding 20 µl of diluted EGFR enzyme to the wells designated “Positive Control” and "Test Inhibitor Control". Incubate at 30°C for 40
minutes. Thaw Kinase-G lo Max reagent. After the 40 minute reaction, 50 µl of
Kinase-Glo Max reagent was added to each well. The plate was covered with
aluminum foil and incubate at room temperature for 15 minutes. Then the
luminescence was measured using the microplate reader (Infinite M200 microplate
reader, Tecan, Männedorf, Switzerland). All assays were performed in triplicate. The
relative inhibition (%) of inhibitors were then calculated compared to the control with
no inhibitor. Then the IC50 values and their standard deviation (SD) for the tested
compounds and the reference drug were determined in (nM).

[4] = test system: all the tested yeasts and fungi strains; assay: Antifungal MIC, range over the panel; type: cell-based
[5] = test system: HepG2 and MCF-7 cancer cell lines; assay: Cytotoxicity, MTT assay, range over both cancer cell lines; type: cell-based, human; settings: for IC50: Homo sapiens, range over HepG2 and MCF-7, read-out: IC50 range, cytotoxic activity against both cell lines
[6] = Cytotoxicity against normal cells, MTT assay; settings: human, WISH normal cells
Excerpt: The cytotoxicity was estimated as IC50 in μM for the tested compounds and the reference drug doxorubicin, and are listed in Table 3.

Bacillus cereus 33018 = assay: In vitro antibacterial activity, MIC by broth dilution; type: cell-based; settings: Gram +ve bacteria, read-out: MIC B. cereus
five bacterial strains = assay: Antibacterial MIC, range over the panel; type: cell-based
[7] = test system: Staphylococcus aureus 25923; assay: In vitro antibacterial activity, MIC by broth dilution; type: cell-based; settings: Gram +ve bacteria, read-out: MIC S. aureus
[8] = test system: Saccharomycese cerevisiae; assay: In vitro antifungal activity, MIC by broth dilution; type: cell-based; settings: Saccharomyces cerevisiae, yeast, read-out: MIC S. cerevisiae
Aspergillus flavus = assay: as above; type: cell-based; settings: fungi
Candida albicans 10231 = assay: as above; type: cell-based; settings: yeast, read-out: MIC C. albicans
[9] = test system: five bacterial and five fungal strains; assay: Antimicrobial MIC, range over bacterial and fungal strains; type: cell-based; settings: range over bacterial and fungal strains
[10] = test system: breast cancer (MCF-7) cells; assay: Cytotoxicity, MTT assay; type: cell-based, human; settings: Homo sapiens, MCF7, MCF7 cells, read-out: Cytotoxic activity IC50 MCF7
Bacillus subtilis 6633 = assay: In vitro antibacterial activity, MIC by broth dilution; type: cell-based; settings: Gram +ve bacteria, read-out: MIC B. subtilis
HepG2 and MCF-7 = settings: Figure 1, reported agents; ref [21],[22],[33],[34]; read-out: IC50 range HepG2 and MCF-7; cited from earlier work
S. typhimurium = settings: Figure 1, reported agents; ref [21],[22],[33],[34]; cited from earlier work

Sequence of EGFR kinase (P00533 25-1210): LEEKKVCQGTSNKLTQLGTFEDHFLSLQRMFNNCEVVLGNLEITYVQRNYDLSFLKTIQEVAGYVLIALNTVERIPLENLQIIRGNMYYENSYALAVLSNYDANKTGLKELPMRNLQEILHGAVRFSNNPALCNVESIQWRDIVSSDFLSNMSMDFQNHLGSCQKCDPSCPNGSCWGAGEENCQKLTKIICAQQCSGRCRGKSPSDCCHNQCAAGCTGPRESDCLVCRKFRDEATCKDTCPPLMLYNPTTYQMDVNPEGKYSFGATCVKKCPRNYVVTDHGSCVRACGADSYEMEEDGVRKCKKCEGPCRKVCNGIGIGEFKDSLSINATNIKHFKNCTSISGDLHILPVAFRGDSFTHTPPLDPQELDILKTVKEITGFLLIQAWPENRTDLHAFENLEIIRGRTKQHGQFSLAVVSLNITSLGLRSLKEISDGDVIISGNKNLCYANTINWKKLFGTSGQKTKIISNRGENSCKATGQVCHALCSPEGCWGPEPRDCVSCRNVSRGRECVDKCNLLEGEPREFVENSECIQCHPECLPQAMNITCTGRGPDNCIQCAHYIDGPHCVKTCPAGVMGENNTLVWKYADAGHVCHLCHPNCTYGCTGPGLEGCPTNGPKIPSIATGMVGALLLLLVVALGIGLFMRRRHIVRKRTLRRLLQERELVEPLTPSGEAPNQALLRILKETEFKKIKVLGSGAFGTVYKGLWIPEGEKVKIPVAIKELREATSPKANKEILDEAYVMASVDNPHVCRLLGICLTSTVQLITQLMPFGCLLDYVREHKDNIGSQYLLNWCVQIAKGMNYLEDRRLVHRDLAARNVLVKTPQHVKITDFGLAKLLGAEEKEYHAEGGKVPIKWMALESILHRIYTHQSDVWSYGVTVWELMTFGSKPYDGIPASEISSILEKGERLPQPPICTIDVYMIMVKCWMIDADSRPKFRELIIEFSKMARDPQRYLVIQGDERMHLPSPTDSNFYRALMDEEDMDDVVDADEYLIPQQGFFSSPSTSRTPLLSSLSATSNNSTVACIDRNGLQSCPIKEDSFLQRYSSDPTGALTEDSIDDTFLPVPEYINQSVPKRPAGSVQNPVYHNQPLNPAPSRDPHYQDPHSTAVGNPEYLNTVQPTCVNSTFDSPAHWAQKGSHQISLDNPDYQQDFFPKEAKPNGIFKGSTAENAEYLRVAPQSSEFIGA

| SMILES | MIC E. coli (E. coli) | MIC S. aureus (S. aureus) | MIC [1] | IC50 [2] | MIC [3] | MIC (Escherichia coli 8739) | MIC (Candida tropicals 750) | IC50 (EGFR kinase) | MIC range against the tested yeasts and fungi strains [4] | IC50 [5] | IC50 [6] | MIC (Bacillus cereus 33018) | melting point | MIC [7] | MIC [8] | MIC (Aspergillus flavus) | MIC (Candida albicans 10231) | MIC range, antibacterial and antifungal [9] | IC50 [10] | MIC (Bacillus subtilis 6633) | other results |
| --- | --- | --- | --- | --- | --- | --- | --- | --- | --- | --- | --- | --- | --- | --- | --- | --- | --- | --- | --- | --- | --- |
| COc1ccc(-c2cc(-c3ccco3)nc3sc(C(N)=O)c(N=C4CCCCC4)c23)cc1 [II] | 15.60 µg/mL (≈ 35 µM) | 15.60 µg/mL (≈ 35 µM) | – | – | – | – | – | – | – | – | – | – | – | – | – | – | – | – | – | – | MIC B. cereus (B. cereus): 15.60 µg/mL (≈ 35 µM) |
| Cc1ccc(-c2cc(-c3ccccc3)nc3sc4c(=O)[nH]c(CN5CCOCC5)nc4c23)cc1 [Compound 5a, 2-(Morpholinomethyl)-7-phenyl-9-(p-tolyl)pyrido[3′,2′:4,5]thieno[3,2-d]pyrimidin-4(3H)-one] | – | – | 16 µg/mL (≈ 34.1 µM) | 1990 ± 90 nM | 16 µg/mL (≈ 34.1 µM) | 8 µg/mL (≈ 17.1 µM) | 8 µg/mL (≈ 17.1 µM) | 9.66 ± 0.08 nM | 4 to 16 µg/mL | 1170 to 2790 nM | 408000 ± 15900 nM | 16 µg/mL (≈ 34.1 µM) | 245 °C | 8 µg/mL (≈ 17.1 µM) | 8 µg/mL (≈ 17.1 µM) | 8 µg/mL (≈ 17.1 µM) | 16 µg/mL (≈ 34.1 µM) | 4 to 16 µg/mL | 2790 ± 180 nM | 8 µg/mL (≈ 17.1 µM) | MIC range against the tested bacterial strains (five bacterial strains): 8 to 16 µg/mL |
| Cc1ccc(-c2cc(-c3ccccc3)nc3sc4c(c23)NC2(CCCC2)N=C4SCC2CO2)cc1 (stereo not shown) [Compound 9b, 4′-((Oxiran-2-ylmethyl)sulfanyl)-7′-phenyl-9′-(p-tolyl)-1′H-spiro[cyclopentane-1,2′-pyrido[3′,2′:4,5]thieno[3,2-d]pyrimidine]] | – | – | 16 µg/mL (≈ 32.1 µM) | 1170 ± 90 nM | 8 µg/mL (≈ 16.1 µM) | 4 µg/mL (≈ 8.04 µM) | 4 µg/mL (≈ 8.04 µM) | 7.27 ± 0.11 nM | 4 to 16 µg/mL | 1170 to 2790 nM | 418000 ± 14100 nM | 8 µg/mL (≈ 16.1 µM) | 120 °C | 4 µg/mL (≈ 8.04 µM) | 8 µg/mL (≈ 16.1 µM) | 8 µg/mL (≈ 16.1 µM) | 4 µg/mL (≈ 8.04 µM) | 4 to 16 µg/mL | 1520 ± 80 nM | 4 µg/mL (≈ 8.04 µM) | Fold higher growth inhibition than doxorubicin ([5]; HepG2 and MCF-7, relative to doxorubicin): 2–3 fold |
| CCOC(=O)c1sc2nc(-c3ccc(OC)cc3)cc(-c3cccs3)c2c1N [III] | 7.80 µg/mL (≈ 19 µM) | 7.80 µg/mL (≈ 19 µM) | – | – | – | – | – | – | – | – | – | – | – | – | – | – | – | – | – | – | IC50 (HepG2 and MCF-7): 33200 to 34800 nM |
| NC(=O)c1sc2nc(-c3ccco3)cc(-c3cccs3)c2c1N [I] | 15.60 µg/mL (≈ 45.7 µM) | – | – | – | – | – | – | – | – | – | – | – | – | – | – | – | – | – | – | – | MIC S. typhimurium (S. typhimurium): 15.60 µg/mL (≈ 45.7 µM) |
